Patent publication US20210267978A1, “NANOPARTICLE FORMULATIONS OF IKE AND METHODS OF USE THEREOF” (The Trustees of Columbia University in the City of New York, priority 2018, published 2021)

How the values were obtained:
[1] = IKE efficacy study, mouse weight; format: in vivo, NCG mice; conditions: 14 days, starting from day 9
Procedure: IKE was dissolved in 5% DMSO/95% HBSS at pH 4 to create a 4 mg/mL solution. 5% DMSO/95% HBSS at pH 4 was used as vehicle 1. IKE PEG-PLGA nanoparticles and unfunctionalized PEG-PLGA nanoparticles (without IKE loading) (vehicle 2) prepared with a NanoAssemblr were dialyzed with deionized water overnight, the water was changed at least twice. Dialyzed IKE-PEG-PLGA nanoparticles and unfunctional PEG-PLGA nanoparticles were concentrated by Amicon Ultra-15 Centrifugal Filter Units to create a solution with 80 mg/mL PEG-PLGA nanoparticles. All above solutions were sterilized by filter through a 0.2 μm syringe filter.
NCG mice, 6-weeks old, were injected with 10 million SUDHLO-6 cells subcutaneously. […] Tumor volume was measured daily with electronic caliper and calculated using the formula: 0.5×length×width^2. […] Tumor volume change was analyzed in Prism using one-way ANOVA. Tumor tissues were analyzed as described in the RT-qPCR, immunofluorescence, TBARS, and lipidomics sections below.
We investigated the efficacy of IKE in vivo in male NCG mice bearing SUDHL6 subcutaneous xenografts. […] During the experimental period, mouse weight and tumor volume were measured daily to determine IKE's antitumor effect and possible toxicity. Tumor growth was calculated as the fold change relative to original tumor volume on day 0 before the first dose (FIG. 4C). […]

[2] = Erastin and IKE solubility measurements (nephelometry); format: physicochemical
Procedure: Solubility measurement samples were prepared in a 96-well Corning Costar plate with two at 1% and 5% DMSO v/v with a total sample volume of 200 μL in MilliQ water. A BMG Labtech NEPHELOstar nephelometer was used to measure turbidity of the samples with the following parameters per the instrument manufacturer: Gain=80, Laser Focus=2.50 mm, and Laser Intensity=90%. Samples were shaken in the nephelometer by orbital shaking for 3 s prior to the turbidity measurement. Sample values were blanked in the instrument software using the corresponding water and DMSO condition values. Turbidity 4000 NTU Calibration Standard-Formazin (Millipore-Sigma) was used as a positive control for all turbidity measurements. The turbidity of each sample was measured within 20 minutes of initial preparation. After the initial measurement, the sample plates were covered with aluminum sealing film and allowed to sit overnight at room temperature prior to re-measuring.

[3] = system: SUDHL6 cells; assay: Reduced glutathione measurement in cell culture (Fluorometric-Green); format: cell-based; conditions: Homo sapiens, SU-DHL-6, 24 hours, average of three experiments, read-out: IC50 of GSH depletion
Procedure: 2.4 million cells were incubated with DMSO, IKE, or β-mercaptoethanol (β-Me) at a density of 0.2 million cells/mL for 24 h. Cells were collected and washed with cold PBS once. Cell number was counted by Vi-Cell. Cells were resuspended in ice cold RIPA buffer (Thermo Fisher Scientific, 89900) with 100 μL/one million cells. Samples were centrifuged for 15 min at 4° C. at 17,000×g. The resulting supernatant was deproteinized using a trichloroacetic acid and sodium bicarbonate solution and kept on ice. The sample was diluted with assay buffer provided in GSH/GSSG Ratio Detection Assay Kit (Abcam, ab13881) ten-fold. Reduced glutathione (GSH) levels were determined using Fluorometric-Green provided in the kit following the manufacture's protocol. 384-well (Corning) low volume black flat bottom polystyrene non-treated microplates 1230F99 were used in this experiment.

## CC(C)Oc1ccc(C(=O)Cn2ccnc2)cc1-n1c(CN2CCN(C(=O)COc3ccc(Cl)cc3)CC2)nc2ccccc2c1=O [IKE, Imidazole ketone erastin]
[1]; 23 mg/kg daily
  mouse weight: weight loss
[1]; 40 mg/kg daily
  mouse weight: weight loss
[2]
  water solubility (in words): soluble under acidic aqueous conditions, but not to the same degree under neutral aqueous conditions
[3]
  IC50: 0.034 µM
